The source made the active and inactive calls.
What was measured:
[1] = Luminescence-based dose response cell-based high throughput screening assay for cytotoxic compounds using the IEC-6 intestinal epithelial cell line. [Related pubchem assays: 1858 (Summary AID.), 1825 (Counterscreen.), 1907 (Confirmation screen.)]; format: functional
[2] = cytotoxicity toward NIH3T3 fibroblasts, dose response, counter-screen, cell-based, ATP luminescence, mouse fibroblasts (AID 2010); format: functional;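 note: cells exposed to compound for about 90 hours before reading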
[3] = molecular target: T1, Short transient receptor potential channel 4 (Mus musculus, UniProt Q9QUQ5); experiment: mouse TRPC4 channel activators, dose response, cell-based, HEK293 TRPC4/mu-opioid, Fluo-4 calcium (AID 434937); format: functional
T1 sequence (Q9QUQ5 whole entry): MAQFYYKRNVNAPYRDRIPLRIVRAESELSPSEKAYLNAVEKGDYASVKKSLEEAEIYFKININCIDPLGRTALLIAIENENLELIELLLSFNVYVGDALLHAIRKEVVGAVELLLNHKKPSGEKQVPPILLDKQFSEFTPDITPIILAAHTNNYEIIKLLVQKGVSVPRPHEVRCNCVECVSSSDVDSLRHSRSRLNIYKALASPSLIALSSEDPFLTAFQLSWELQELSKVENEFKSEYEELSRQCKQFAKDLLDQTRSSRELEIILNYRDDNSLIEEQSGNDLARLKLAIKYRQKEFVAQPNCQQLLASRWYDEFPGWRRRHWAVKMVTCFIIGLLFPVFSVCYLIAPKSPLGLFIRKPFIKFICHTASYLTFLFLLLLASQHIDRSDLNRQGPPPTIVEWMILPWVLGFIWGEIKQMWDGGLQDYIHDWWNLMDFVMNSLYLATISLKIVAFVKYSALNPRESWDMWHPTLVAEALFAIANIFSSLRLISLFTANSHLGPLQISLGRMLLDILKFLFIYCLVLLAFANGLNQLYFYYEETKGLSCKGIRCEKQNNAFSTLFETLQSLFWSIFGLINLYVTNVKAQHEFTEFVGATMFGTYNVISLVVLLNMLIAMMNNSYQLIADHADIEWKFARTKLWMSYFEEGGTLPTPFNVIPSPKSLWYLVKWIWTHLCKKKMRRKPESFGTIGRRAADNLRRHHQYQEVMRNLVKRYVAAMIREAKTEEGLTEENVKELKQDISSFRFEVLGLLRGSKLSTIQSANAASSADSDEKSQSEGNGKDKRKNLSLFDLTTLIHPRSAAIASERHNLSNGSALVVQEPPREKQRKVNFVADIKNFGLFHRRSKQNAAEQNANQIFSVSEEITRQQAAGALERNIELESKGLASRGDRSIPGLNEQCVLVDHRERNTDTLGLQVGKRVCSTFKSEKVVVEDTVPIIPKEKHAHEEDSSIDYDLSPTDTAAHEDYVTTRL

[4] = inhibitors of intracellular T. cruzi replication, confirmation, NIH3T3 host cells, beta-gal luminescence (AID 2044); format: functional, cell-based;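 note: intracellular parasites grown in NIH/3T3 mouse fibroblasts as host cells; luminescent beta-galactosidase reporter signal from transgenic T. cruzi replicating inside host cells; inhibitors lower the luminescence signal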
[5] = molecular target: T2, Heat shock protein HSP 90-alpha (Homo sapiens, UniProt P07900); experiment: Luminescence-based dose response biochemical high throughput screening assay for inhibitors of the Heat Shock Protein 90 (HSP90). [Related pubchem assays: 1831 (Summary AID.), 1846 (Confirmation screen.), 1789 (Primary screen.)]
Bcl-2-related protein A1 = molecular target: T3, Bcl-2-related protein A1 (Mus musculus, UniProt Q07440); experiment: Bfl-1 inhibitors, primary screen, biochemical, fluorescence polarization, FITC-Bid, mouse (AID 432)
T3 sequence (Q07440 whole entry): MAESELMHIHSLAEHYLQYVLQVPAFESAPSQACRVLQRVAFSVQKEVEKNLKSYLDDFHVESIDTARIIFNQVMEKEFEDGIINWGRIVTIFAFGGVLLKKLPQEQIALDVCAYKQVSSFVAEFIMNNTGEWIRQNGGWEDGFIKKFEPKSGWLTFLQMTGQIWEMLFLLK

[6] = molecular target: T4, Small ubiquitin-related modifier 1 (Homo sapiens, UniProt P63165); experiment: inhibitors of SUMO1 peptide binding, dose response, biochemical, fluorescence polarization, uHTS hits (AID 624382); format: functional; details: read-out: IC50_Mean
[7] = molecular target: T5, Dual specificity protein phosphatase 6 (Rattus norvegicus, UniProt Q64346); experiment: MKP-3 phosphatase inhibitors, primary screen, biochemical, rat enzyme, in vitro (AID 425)
T5 sequence (Q64346 whole entry): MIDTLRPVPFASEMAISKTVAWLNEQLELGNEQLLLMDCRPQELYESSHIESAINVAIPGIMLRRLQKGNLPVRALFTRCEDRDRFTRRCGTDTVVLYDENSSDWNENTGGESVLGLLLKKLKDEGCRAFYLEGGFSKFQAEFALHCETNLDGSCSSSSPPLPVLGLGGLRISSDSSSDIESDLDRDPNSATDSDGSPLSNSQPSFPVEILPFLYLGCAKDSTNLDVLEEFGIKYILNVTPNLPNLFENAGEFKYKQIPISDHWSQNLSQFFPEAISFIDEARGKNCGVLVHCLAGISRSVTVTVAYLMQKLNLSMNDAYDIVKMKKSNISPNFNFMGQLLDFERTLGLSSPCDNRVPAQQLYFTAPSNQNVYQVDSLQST

[8] = molecular target: T4, Small ubiquitin-related modifier 1; experiment: inhibitors of SUMO1 partner interactions, dose response, biochemical, FRET (AID 624383); format: functional; details: read-out: IC50_Mean
[9] = molecular target: Neuropeptide Y receptor type 1 (Homo sapiens, UniProt P25929); experiment: NPY-Y1 receptor antagonist potency, dose response, cell-based (AID 1277); format: functional
[10] = molecular target: T2, Heat shock protein HSP 90-alpha; format: functional, organism-based
[11] = THP-1 cell cytotoxicity, dose response, cytotoxicity control for Vif-APOBEC3G degradation inhibitor project, THP-1 cells (AID 1117359); format: functional; details: Human immunodeficiency virus 1, THP-1
Protein Tat = Protein Tat (Human immunodeficiency virus type 1 group M subtype B (isolate HXB2)(HIV-1), UniProt P04608); format: functional;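 note: tat binding to TAR RNA read out by fluorescence polarization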
[12] = Luminescent dose response cell-based high throughput screening assay for inhibitors of the Janus kinase 2 mutant JAK2V617F. [Related pubchem assays: 1446 (Primary screen.), 1521 (Confirmation assay.), 1486 (Counter screen.)]; format: functional
[13] = Luminescence Cell-Based Dose Confirmation to Identify Activators of 5'UTR Stem-Loop Driven Alpha-Synuclein mRNA Translation in H4 Neuroglioblastoma Cells. [Related pubchem assays: 1829 (Project Summary), 1814 (Primary HTS)]; format: functional
[14] = Luminescence Cell-Based Dose Response to Identify Activators of 5'UTR Stem-Loop Driven Prion Protein mRNA Translation in H4-C Neuroglioblastoma Cells. [Related pubchem assays: 1829 (Project Summary), 1814 (Primary HTS)]; format: functional
[15] = Luminescence Cell-Based Dose Response to Identify Activators of Luciferase Translation or Activity in H4-C Neuroglioblastoma Cells. [Related pubchem assays: 1829 (Project Summary), 1814 (Primary HTS)]; format: functional
[16] = HEp-2 cell cytotoxicity, dose response, cytotoxicity control for RSV inhibitor project, HTS (AID 2410); format: functional; details: human respiratory syncytial virus
[17] = Luminescence Cell-Based Dose Response HTS to Identify Activators of Luciferase Translation or Activity in H4 […] Cells. [Related pubchem assays: 1829 (Project Summary), 1814 (Primary HTS)]; format: functional
Large T antigen = Large T antigen (Simian virus 40, UniProt P03070); format: functional, Betapolyomavirus macacae;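 note: Confirmatory-stage PubChem screen for compounds that inhibit SV40 T antigen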
[18] = Luminescence Cell-Based Dose Confirmation HTS to Identify Activators of 5'UTR Stem-Loop Driven Alpha-Synuclein mRNA Translation in H4 Neuroglioblastoma Cells. [Related pubchem assays: 1829 (Project Summary), 1814 (Primary HTS)]; format: functional
[19] = molecular target: Induced myeloid leukemia cell differentiation protein Mcl-1 (Homo sapiens, UniProt Q07820); format: functional
H4 = experiment: Luminescence Cell-Based Dose Response HTS to Identify Activators of 5'UTR Stem-Loop Driven Prion Protein mRNA Translation in H4 Neuroglioblastoma Cells. [Related pubchem assays: 1829 (Project Summary), 1814 (Primary HTS)]; format: functional; details: Homo sapiens
[20] = P. falciparum Dd2 growth inhibitors, dose response, SYBR Green, dry powder samples, set 9 (AID 1159568); format: functional, cell-based
[21] = P. falciparum Dd2 growth inhibitors, dose response, SYBR Green, cherry-picked samples (AID 1159567); format: functional, cell-based
[22] = HepG2 cell cytotoxicity, dose response, cytotoxicity control, cherry-picked samples (AID 1159577); format: functional, cell-based

T4 sequence (P63165 whole entry): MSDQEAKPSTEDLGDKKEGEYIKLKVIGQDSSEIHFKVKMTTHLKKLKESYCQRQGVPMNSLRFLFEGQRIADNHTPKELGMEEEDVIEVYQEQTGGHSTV
Sequence of Protein Tat (P04608 whole entry): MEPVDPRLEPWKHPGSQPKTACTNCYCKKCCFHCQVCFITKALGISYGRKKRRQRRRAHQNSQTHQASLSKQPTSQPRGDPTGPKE
Sequence of Large T antigen (P03070 whole entry): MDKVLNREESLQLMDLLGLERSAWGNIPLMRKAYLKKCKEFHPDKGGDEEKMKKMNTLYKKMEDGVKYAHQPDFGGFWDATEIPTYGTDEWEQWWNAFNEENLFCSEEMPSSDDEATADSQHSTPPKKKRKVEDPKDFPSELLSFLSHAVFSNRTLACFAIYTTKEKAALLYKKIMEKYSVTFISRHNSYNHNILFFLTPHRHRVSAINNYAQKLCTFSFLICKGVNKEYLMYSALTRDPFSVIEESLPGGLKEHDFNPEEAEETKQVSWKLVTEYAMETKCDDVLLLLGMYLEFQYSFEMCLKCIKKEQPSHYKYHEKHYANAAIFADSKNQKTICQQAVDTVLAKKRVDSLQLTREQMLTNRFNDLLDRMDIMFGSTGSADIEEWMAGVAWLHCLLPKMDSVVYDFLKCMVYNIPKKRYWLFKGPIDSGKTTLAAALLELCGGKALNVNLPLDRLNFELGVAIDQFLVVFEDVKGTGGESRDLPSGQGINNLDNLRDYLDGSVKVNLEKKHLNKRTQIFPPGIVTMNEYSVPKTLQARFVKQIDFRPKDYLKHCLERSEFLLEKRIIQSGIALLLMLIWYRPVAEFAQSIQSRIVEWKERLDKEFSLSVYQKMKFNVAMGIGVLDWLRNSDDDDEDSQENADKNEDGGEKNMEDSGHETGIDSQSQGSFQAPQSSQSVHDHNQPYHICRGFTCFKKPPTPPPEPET
Sequence of Induced myeloid leukemia cell differentiation protein Mcl-1 (Q07820 whole entry): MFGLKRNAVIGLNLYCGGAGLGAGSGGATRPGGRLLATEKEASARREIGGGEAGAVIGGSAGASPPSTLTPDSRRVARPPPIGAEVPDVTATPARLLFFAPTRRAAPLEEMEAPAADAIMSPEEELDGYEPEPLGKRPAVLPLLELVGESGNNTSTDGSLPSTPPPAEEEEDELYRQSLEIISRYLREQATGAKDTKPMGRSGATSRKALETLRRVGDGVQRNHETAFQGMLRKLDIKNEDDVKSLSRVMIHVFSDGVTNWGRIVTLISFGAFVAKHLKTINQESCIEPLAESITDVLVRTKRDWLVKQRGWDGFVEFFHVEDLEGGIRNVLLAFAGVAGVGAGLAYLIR
Sequence of Neuropeptide Y receptor type 1 (P25929 whole entry): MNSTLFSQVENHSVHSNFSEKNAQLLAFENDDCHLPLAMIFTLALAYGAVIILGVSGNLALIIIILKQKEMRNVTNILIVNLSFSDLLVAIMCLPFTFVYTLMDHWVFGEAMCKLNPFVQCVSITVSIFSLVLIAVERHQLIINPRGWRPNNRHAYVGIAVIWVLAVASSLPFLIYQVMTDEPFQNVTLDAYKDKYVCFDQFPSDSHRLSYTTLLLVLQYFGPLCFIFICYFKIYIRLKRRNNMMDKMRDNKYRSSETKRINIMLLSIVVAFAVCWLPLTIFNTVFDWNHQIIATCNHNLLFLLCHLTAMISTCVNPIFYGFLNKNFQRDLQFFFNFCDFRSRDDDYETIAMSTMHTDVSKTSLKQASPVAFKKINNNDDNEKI

## N=C(N)Nc1ccc(NC(=N)N)cc1
[1]
  IC50: 1.8 µM (active)

## Cc1ccc2oc(=O)c3cnn(CC(=O)NC4CCN(Cc5ccccc5)CC4)c3c2c1
[2]
  EC50: > 60 µM (not active)
cells
  EC50: 0.079 µM (active)
[3]
  EC50: 2.11 µM (active)
[4]
  EC50: < 0.1 µM (active)

## COC(=O)c1ccc(COc2ccc3c(C)c(C)c(=O)oc3c2)o1
[5]
  IC50: 1.07 µM (active)

## Nc1ccc2ncccc2c1N
Bcl-2-related protein A1
  IC50: 3.49 µM (active)
[6]
  IC50: > 66.6 µM (inactive)
[7]
  IC50: > 10 µM (not active)
[8]
  IC50: 3.21 µM (active)

## CCc1cc(-c2n[nH]cc2-c2ccc3c(c2)OCO3)c(O)cc1O
[9]
  IC50: 13.3 µM (not active)

## O=C(Nc1nc(-c2ccco2)c(-c2ccco2)s1)c1ccco1
[10]
  AC50: 5.17 µM (active)
[11]
  CC50: > 40 µM (active)
Protein Tat
  IC50: > 100 µM (active)

## CCCn1c(CN(C)Cc2ccccc2)nc2c1c(=O)n(C)c(=O)n2C
[12]
  IC50: 4.92 µM (active)

## COc1ccc(CCN2C(=O)CC(Nc3ccc(N4CCOCC4)cc3)C2=O)cc1OC (stereo unspecified)
Protein Tat
  IC50: 18.8 µM (inconclusive)

## COC(=O)C1CCN(C(=O)c2ccc3nc(-c4cccc(OC)c4)oc3c2)CC1
[5]
  IC50: 1.05 µM (active)

## O=C(Nc1nc(-c2ccc3c(c2)OCCO3)cs1)C1CCCC1
[13]
  EC50: 0.247 µM (active)
[14]
  EC50: 0.365 µM (active)
[15]
  EC50: 0.27 µM (active)
[16]
  CC50: 21 µM (active)
[17]
  EC50: < 0.1 µM (inconclusive)

## Cc1ncc(CN2CCCC(CCC(=O)NCc3ccccc3F)C2)s1 (stereo unspecified)
[2]
  EC50: > 60 µM (not active)
cells
  EC50: 0.099 µM (active)
[4]
  EC50: < 0.1 µM (active)

## Cc1oc2c(O)c(O)ccc2c(=O)c1-c1cnn(-c2ccccc2)c1
Large T antigen
  IC50: 10.2 µM (active)
[12]
  IC50: 2.04 µM (active)

## Oc1ccc(-c2csc(Nc3ncccn3)n2)cc1O
[13]
  EC50: 0.67 µM (active)
[18]
  EC50: 0.1 µM (active)
[19]
  IC50: 3.52 µM (active)
[14]
  EC50: 0.815 µM (active)
Large T antigen
  IC50: 14 µM (active)
[15]
  EC50: > 12 µM (not active)
H4
  EC50: 0.125 µM (active)
[17]
  EC50: 3.45 µM (active)

## COc1ccc(S(=O)(=O)Nc2ccc3c(c2)C(=O)N([C@H](C)CO)C[C@@H](C)[C@H](CN(C)Cc2ccc(C(F)(F)F)cc2)OCCCC[C@@H](C)O3)cc1
[20]
  AC50: 3.69 µM (active)

## C[C@@H]1CN([C@@H](C)CO)S(=O)(=O)c2ccc(/C=C/c3ccccc3)cc2O[C@@H]1CN(C)C(=O)Nc1ccc(F)cc1
[21]
  AC50: 5.09 µM (active)
[22]
  AC50: 25.5 µM (active)

## C[C@H]1CCCCO[C@H](CN(C)S(=O)(=O)c2ccc(F)cc2)[C@@H](C)CN([C@@H](C)CO)C(=O)c2cc(N(C)C)ccc2O1
[20]
  AC50: 4.91 µM (active)

## CCCc1cn(CC[C@H]2CC[C@@H](NS(=O)(=O)c3ccc(-c4ccccc4)cc3)[C@H](CO)O2)nn1
[21]
  AC50: 1.31 µM (active)
[22]
  AC50: 14.8 µM (active)

— ChEMBL document CHEMBL1201862, “PubChem BioAssay data set” (2004)
